Assay results from paper PMC10899635, “Q586B2 is a crucial virulence factor during the early stages of Trypanosoma brucei infection that is conserved amongst trypanosomatids” (Nature Communications, 2024).

How the values were obtained:
rmMIF = biological target: T1, rmMIF (Mus musculus, UniProt P34884); assay: dopachrome methyl ester tautomerase assay, OD475 nm; format: biochemical; conditions: 83.3 nM protein preincubated 1 h at 37 °C with 10 µM ISO-1; pH 6.0, 25 °C
T1 construct: gene Mif; commercial recombinant (R&D systems); trimer

Q586B2 = biological target: T2, Q586B2 (Trypanosoma brucei, UniProt Q586B2); assay: as above; format: biochemical; conditions: 83.3 nM protein; 50 mM potassium phosphate, 1 mM EDTA, pH 6.0, 25 °C
T2 construct: gene Tb06.4F7.140; full length, 115 aa, 13 kDa; N-terminal His6- and FLAG-tag (removable); codon-optimized, E. coli WK6
T2 sequence (Q586B2 entry or part of it): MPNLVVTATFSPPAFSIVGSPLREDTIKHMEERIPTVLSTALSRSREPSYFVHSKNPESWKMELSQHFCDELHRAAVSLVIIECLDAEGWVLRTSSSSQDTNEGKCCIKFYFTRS

T1 sequence (P34884 2-115): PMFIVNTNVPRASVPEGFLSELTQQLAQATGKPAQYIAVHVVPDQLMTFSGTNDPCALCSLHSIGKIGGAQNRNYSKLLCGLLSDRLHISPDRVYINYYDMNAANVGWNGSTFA

| Structure (SMILES) | % tautomerase activity with 10 μM ISO-1 (rmMIF) | % tautomerase activity of rmMIF (Q586B2) |
| --- | --- | --- |
| COC(=O)CC1CC(c2ccc(O)cc2)=NO1 (centres unmarked) [ISO-1] | contrast to MIF, the Q586B2 tautomerase activity was not inhibited by the small molecule ISO-1 |  |
| COC(=O)[C@@H]1CC2=CC(=O)C(=O)C=C2N1 [dopachrome methyl ester] |  | Q586B2 indeed exhibited a moderate tautomerase activity |
